These results are taken from publication PMC10535717, “A Novel Antimicrobial Peptide, Dermaseptin-SS1, with Anti-Proliferative Activity, Isolated from the Skin Secretion of Phyllomedusa tarsius” (Molecules, 2023).

Ends that are not written are not given here.

One data set has as its system S. aureus ATCC CRM 6538. The class given is cell-based, Staphylococcus aureus. An excerpt:
(§1) The anti-planktonic microorganism efficacy of the peptides was investigated via minimal bacterial inhibitory concentration (MIC) and minimal bactericidal concentration (MBC) assays. Eight types of microorganisms, including Gram-positive bacteria, Staphylococcus aureus (ATCC CRM 6538), Methicillin-resistant Staphylococcus aureus (NCTC 12493), and Enterococcus faecium (NCTC 12697), Gram-negative bacteria, Escherichia coli (ATCC CRM 8739, ATCC BAA 2340, ATCC 13846, ATCC BAA 2469, and ATCC BAA 2471), Klebsiella pneumoniae (ATCC 43816), Pseudomonas aeruginosa (ATCC CRM 9027) and Acinetobacter baumannii (ATCC BAA 747) and a yeast, Candida albicans (ATCC CRM 10231) were utilized to test the antimicrobial activity of peptides.
(§2) For the MIC assay, microorganisms were inoculated with peptides in a 96-well plate. Nutrient broth (NB) was applied for MRSA, E. coli, K. pneumoniae, and P. aeruginosa, tryptic soy broth (TSB) was applied for S. aureus, E. faecium, and A. baumannii, and yeast extract peptone dextrose broth (YPD-B) was used for C. albicans. The microorganisms were cultured (bacteria: 37 °C; yeast: 26 °C) overnight at 120 rpm and subcultured to achieve the logarithmic growth stage (5 × 10^5 CFU/mL), as confirmed by viable cell counts. After that, 99 µL of the subculture and 1 µL of the peptide were added to the 96-well plate. The final concentration of peptides ranged from 128 to 1 µmol/L (µM) using a 2-fold dilution. In addition, four other groups were established simultaneously at the commencement of the test: a growth control group, a vehicle control group (Dimethyl Sulphoxide, DMSO), a positive control group utilizing Norfloxacin at a concentration of 2 mg/mL for bacteria, and Amphotericin B. at a concentration of 1 mg/mL for yeast, and a blank control group (sterile NB/TSB/YPD-B). The MIC values were measured after overnight incubation at 37/26 °C. The optical density (OD) values were analysed at 550 nm using a Synergy HT plate reader (BioTek, Washington, USA), and were calculated using the following equation:(1) Cell Viability %=[(As−A0)/(Ag−A0)]×100% where As is the absorbance value of the sample group, A0 is the average of the absorbance values of the blank control, and Ag is the average of the absorbance values of the growth control. For the MBC assay, 10 µL of the inhibited cultures on the 96-well plate were transferred onto a corresponding medium agar plate and incubated overnight at 37/26 °C to measure MBC values. The results were obtained from three independent assays.

The test system of a further data set is MRSA NCTC 12493. The class given is cell-based, Methicillin-resistant Staphylococcus aureus.
Source text: as §1, §2

For a further data set, the system named is E. faecalis NCTC 12697. The class given is cell-based.
In another data set the test system is E. coli ATCC CRM 8739. It is filed as cell-based, Escherichia coli.
Source text: as §1, §2

A further data set concerns K. pneumoniae ATCC 43816. The class given is cell-based, Klebsiella pneumoniae.
Source text: as §1, §2

In data set [1] the test system is P. aeruginosa ATCC CRM 9027. The class given is cell-based, Pseudomonas aeruginosa.
Source text: as §1, §2

Data set [2] concerns A. baumannii ATCC BAA 747. The class given is cell-based, Acinetobacter baumannii.
Source text: as §1, §2

For data set [3], the system named is C. albicans ATCC CRM 10231. The class given is cell-based, Candida albicans.
Source text: as §1, §2

The subject of another data set is horse erythrocytes. The experiment in a line: Haemolysis activity. It is filed as cell-based. The following applies: concentration causing 50% haemolysis; 4% (v/v) horse red blood cells in PBS, peptide 128 to 1 µM, 37 °C 2 h, OD 570 nm, 1% Triton X-100 positive control, three separate assays. As to the method:
To start, fresh defibrinated horse blood (TCS Biosciences Ltd., Buckingham, UK) was washed with PBS solution to obtain a clear supernatant. Then, a 4% (v/v) suspension of red blood cells was made in PBS. After this, 100 µL of the peptide solutions were incubated with 100 µL of the suspension of red blood cells in 2 mL centrifuge tubes at 37 °C for 2 h. The ultimate concentration of peptides ranged from 128 to 1 µM obtained by a 2-fold dilution. Also, two other groups were set simultaneously, including a positive control group of 1% Triton X-100 and a blank control group of phosphate-buffered saline (PBS). After incubation and centrifugation at 900× g for 10 min, a volume of 100 µL of the resulting supernatant from each specimen was carefully transferred to individual wells of the 96-well plate. Subsequently, the OD values were analysed using a Synergy HT plate reader (BioTek, USA) at a wavelength of 570 nm using the following equation:(2) Haemolysis Activity %=[(As−A0)/(Ap−A0)]×100% where As is the absorbance value of the supernatant of the peptide group, A0 is the average absorbance value of the blank control, and Ap is the average absorbance value of the positive control. The data were obtained from three separate assays.

A further data set relates to Gram-positive bacteria. The experiment in a line: Geometric mean of MICs and therapeutic index, Gram +. The class given is cell-based. The following applies: geometric mean of MICs of Table 3; 256.00 μM used where no activity at 128.00 μM.
Source text: as §1
(§3) For the MIC assay, microorganisms were inoculated with peptides in a 96-well plate. […] The MIC values were measured after overnight incubation at 37/26 °C. The optical density (OD) values were analysed at 550 nm using a Synergy HT plate reader (BioTek, Washington, USA), and were calculated using the following equation:(1) Cell Viability %=[(As−A0)/(Ag−A0)]×100% where As is the absorbance value of the sample group, A0 is the average of the absorbance values of the blank control, and Ag is the average of the absorbance values of the growth control. […]

A further data set concerns Gram-negative bacteria. The experiment in a line: Geometric mean of MICs and therapeutic index, Gram −. The class given is cell-based. The following applies: geometric mean of MICs of Table 3; 256.00 μM used where no activity at 128.00 μM.
Source text: as §1, §3

Regarding “ALWKSILKNVGKVLNEINQIVQ-NH2 [Peptide L2V]”, the MBC with S. aureus ATCC CRM 6538 is above 128 µM; with MRSA NCTC 12493, 4 µM; against E. faecalis NCTC 12697, above 128 µM; in the data set on E. coli ATCC CRM 8739, above 128 µM; in the data set with K. pneumoniae ATCC 43816, above 128 µM; in data set [1], above 128 µM. Moreover, the MBC in data set [2] is 4 µM; in data set [3] (ATCC CRM 10231), above 128 µM. For the same substance, the MIC in the data set on S. aureus ATCC CRM 6538 is above 128 µM; with MRSA NCTC 12493 it was 4 µM; against E. faecalis NCTC 12697, above 128 µM; with E. coli ATCC CRM 8739 it was above 128 µM; in the data set with K. pneumoniae ATCC 43816 it was 8 µM; in [1] it was above 128 µM. Moreover, the MIC in data set [2] was 4 µM; in data set [3] (ATCC CRM 10231), above 128 µM. Moreover, the “GM Yeast” value in [3] (geometric mean of MICs of Table 3, 256.00 μM used where no activity at 128.00 μM) worked out at 256.00 µM. Moreover, the HC50 with horse erythrocytes is 256.00. For the same substance, the “GM Gram +” value in the data set with Gram-positive bacteria is 64.00 µM. The “GM Gram −” value in the data set with Gram-negative bacteria worked out at 38.05 µM.

One may read the MIC as the lowest concentration that inhibits growth of the organism.
